Test [1] deals with AP sites in calf thymus AP DNA. The test can be described thus: Genomic DNA time course of Cy7MX binding. The conditions noted are these: heat/acid treated DNA, 37° C. The protocol:
Calf thymus DNA was purchased from Sigma and was reconstituted overnight at 4° C. in either H2O or 500 mM MX (to eliminate basal AP sites) with gentle shaking (1.5 mL water or solution per 5 mg DNA). For samples reconstituted in MX solution, an ethanol precipitation was performed twice before heat and acid treatment (vide infra) then reconstituted in water. The DNA-water solution was aliquoted to 1.5 mL Eppendorf tubes (360 μL) and 10× Citrate buffer (1M NaCl, 100 μM monosodium phosphate, 100 μM monosodium citrate, pH 5.0) was added to a final concentration of 1×. For t=0 min samples, ice-cold 100% EtOH (1.0 mL) was added immediately and the Eppendorf tubes stored at −20° C. Other samples were placed in a 70° C. heating block for 15-90 minutes in 15-minute increments. Samples were removed from heat, precipitated in ice-cold 100% EtOH (1.0 mL), and then chilled at −20° C. for at least 20 minutes. Samples were centrifuged at 12,000×G for 10 min at 4° C. The supernatant was discarded. The process was repeated once beginning with the addition of EtOH (1.0 mL). The DNA pellet was dissolved in 700 μL H2O or TE buffer. […]
A 100 mM stock solution of Cy7MX in DMSO was diluted to 25 μM in H2O. […] Aliquots (125 μL) of the samples were added to a black, clear-bottom 96 well plate (Corning) and analyzed with 750 nm excitation and 800 nm emission. Fluorescence was adjusted to DNA concentration.

The test system of the next test is DLD1 WT cells. As to the kind of experiment: MMS treatment, isolation, and Cy7MX analysis of DLD1 DNA. In kind it is cell-based. Particulars: 3 h MMS exposure, 1 h Cy7MX. Here is the method: DLD1 shControl (WT) cells at a density of 3 million cells per dish were plated in Falcon brand 100×20 mm cell culture dishes in 10 mL medium (DMEM supplemented with 10% heat inactivated FBS, penicillin/streptomycin, and nonessential amino acids) and incubated 16 h at 37° C. and 5% CO2 to ensure adhesion. Solutions of MMS were prepared in serum free DMEM medium at concentrations of 0.05, 0.25, 1, 4, and 10 mM. Medium was removed from the cells and replaced with the MMS or a serum free medium vehicle. Three plates were prepared per treatment group. Cells were incubated at 37° C. and 5% CO2 with continuous MMS exposure for 3 h. At the time points, cells were collected and DNA isolated as described above (Treatment of DLD1 cells with FUDR).
Pure DNA pellets were suspended in 190 μL water. A solution of Cy7MX (10 μL, final=25 μM) was added to each sample, keeping the stock solution and all treated samples vigorously in the dark until the final analysis. Samples were incubated with Cy7MX for 1 h at 37° C. in the dark. After incubation, DNA was purified and analyzed as described above.
Methyl methanesulfonate (MMS) is a methylating agent used to induce AP sites in cells. An MMS dose-response in DLD1 WT cells was performed for a 3 h treatment time. […] Fluorescence was measured following ethanol precipitation purification.

The values below come from patent US10718028B2, “Fluorescent probes for abasic site detection” (CASE WESTERN RESERVE UIVERSITY, priority 2015, dated 2020).

On to `CCCN1/C(=C/C=C2\CCCC(/C=C/C3=[N+](CCC)c4ccccc4C3(C)C)=C2Oc2ccc(CC(=O)NCCCON)cc2)C(C)(C)c2ccccc21` [Cy7MX, 2-((E)-2-((E)-2-(4-(2-((3-(aminooxy)propyl)amino)-2-oxoethyl)phenoxy)-3-((E)-2-(3,3-dimethyl-1-propylindolin-2-ylidene)ethylidene)cyclohex-1-en-1-yl)vinyl)-3,3-dimethyl-1-propyl-3H-indol-1-ium 2,2,2-trifluoroacetate], for which, in test [1], the “time to complete reaction” value is on record as “approximately 10 min”. Besides, in the test on DLD1 WT cells, the “detection of AP sites in DNA of MMS treated cells” value is on record as “sensitive to the quantity of AP sites induced by mM concentrations of MMS”.
